The values that follow are results of earlier work, collected in patent publication US20230128032A1, “Early Drug Interventions to Reduce COVID-19 Related Respiratory Distress, Need for Respirator Assist and Death” (Curtails LLC, priority 2020, published 2023).

In data set [1] the test system is patients with acute lung injury. Conditions: intravenous infusion, mechanical ventilation with positive end-expiratory pressure.
The subject of data set [2] is isolated perfused lung. The conditions noted are these: increased capillary pressure, hypoxia or inflammatory stimuli such as detergents or prostaglandins.
For data set [3], the system named is mice. Conditions: ANP pretreatment.
For data set [4], the system named is rodents.
Data set [5] relates to dogs.
The test system of data set [6] is intensive care patients without heart disease.
In data set [7] the test system is patients with pulmonary arterial hypertension. Conditions: racecadotril treatment.

Bridges are numbered along the chain shown (N, C = ends). Where no end group is shown, it is not given here.

For “ANP: synthetic form of the GC-A agonist peptide atrial natriuretic peptide (SLRRSSCFGGRMDRIGAQSGLGCNSFRY; disulfide 7-23; ends not checked; UniProt P01160 124-151, looked up)”, in data set [1], the lung injury score entry is “improved” and the pulmonary gas exchange entry was “improved”. The “anti-oedematic action in isolated perfused lung” value in data set [2] was “direct anti-oedematic action”. Further, the “lung injury, inflammation and endothelial barrier dysfunction induced by gram-negative bacterial wall LPS or Staphylococcus Aureus infection” value in data set [3] is reported as “protected”. The “pulmonary oedema induced by lung ischaemia-reperfusion injury” value in data set [4] is listed as “attenuated”. Besides, the “pulmonary oedema induced by congestive heart failure” value in data set [5] is given as “attenuated”. For the same molecule, the pulmonary oedema result in data set [6] was “diminished”.
On to `CC(=O)SCC(Cc1ccccc1)C(=O)NCC(=O)OCc1ccccc1` (stereo not shown) [racecadotril], for which, in data set [7], the “increase in plasma cGMP levels” value is listed as 106%, the “increase in the plasma ANP concentration” value is given as 79% and the “reduction in pulmonary vascular resistance” value is recorded as 14%.
